In brackets after ≈: the same amount, converted by molar mass.
Experiments:
S. aureus = experiment: In vitro MIC, serial two-fold agar dilution, primary evaluation Gp (S. aureus, 6 strains); type: cell-based; conditions: CBPC = 100%; geometric mean of MICs; Mueller-Hinton agar
Method in brief: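 Two-fold serial agar dilution on Mueller-Hinton agar (Steers' replicator); GP group is 6 S. aureus strains. Values are relative activity versus carbenicillin (set at 100%), calculated from the geometric mean of the group's MICs.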

[1] = system: E. coli (9), Klebsiella sp. (2), Pr. mirabilis (1), Sal. enteritidis (1); experiment: In vitro MIC, serial two-fold agar dilution, primary evaluation Gn-I (E. coli, Klebsiella sp., Pr. mirabilis, Sal. enteritidis); type: cell-based; conditions: CBPC = 100%; geometric mean of MICs; Mueller-Hinton agar
Method in brief: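 Two-fold serial agar dilution on Mueller-Hinton agar, inoculated with a Steers' replicator. Activity is expressed relative to carbenicillin set at 100%. Values are based on the geometric mean MIC per organism group.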

[2] = system: Ent. cloacae (3), Pr. vulgaris (1), Pr. morganii (1), S. marcescen (1); experiment: In vitro MIC, serial two-fold agar dilution, primary evaluation Gn-II (Ent. cloacae, Pr. vulgaris, Pr. morganii, S. marcescens); type: cell-based; conditions: CBPC = 100%; geometric mean of MICs; Mueller-Hinton agar
Method in brief: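 MICs by two-fold serial agar dilution on Mueller-Hinton agar with a Steers replicator. Reported as activity relative to carbenicillin set at 100%, computed from geometric mean MICs over the strains in each group.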

Ps. aeruginosa = experiment: In vitro MIC, serial two-fold agar dilution, primary evaluation Ps (6 strains); type: cell-based; conditions: CBPC = 100%; geometric mean of MICs; Mueller-Hinton agar
Method in brief: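 MIC by serial two-fold agar dilution on Mueller-Hinton agar (Steers' apparatus) against 6 Pseudomonas aeruginosa strains in primary screening. Values expressed as relative activity versus carbenicillin set at 100%, based on geometric mean MIC.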

Pseudomonas aeruginosa = experiment: In vitro MIC, serial two-fold agar dilution, secondary evaluation against Pseudomonas aeruginosa strains; type: cell-based; conditions: CBPC = 100%; geometric mean of MICs; 61-64 strains
Method in brief: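 Two-fold serial agar dilution on Mueller-Hinton agar (Steers' apparatus) against 64 P. aeruginosa strains. Values are relative activity versus carbenicillin set at 100%, based on geometric mean MICs.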

[3] = system: Staphylococcus aureus Smith; experiment: In vivo efficacy, experimental infection in mice, intramuscular treatment, Staphylococcus aureus Smith; parameters: species or system Staphylococcus aureus (infected mice); conditions: im, 120 h, I.M., 100×LD50 challenge i.p., 5 days, read-out: PD50 Staphylococcus aureus Smith
Method: (§1) The in vivo efficacy was evaluated by intramuscular treatment against three kinds of experimental infection in mice.
(§2) The in vivo tests were carried out using the following three pathogenic organisms:
Staphylococcus aureus Smith
(§3) Mice were challenged intraperitoneally with approximately a 100×LD50 dose of the pathogens in a 5% mucin suspension. The mice were treated with test compound by I.M. route immediately after the bacterial challenge.

[4] = system: Pseudomonas aeruginosa A9843; experiment: In vivo efficacy, experimental infection in mice, intramuscular treatment, Pseudomonas aeruginosa A9843; parameters: species or system Pseudomonas aeruginosa (infected mice); conditions: A9843, im, 120 h, I.M., 100×LD50 challenge i.p., 5 days, read-out: PD50 Pseudomonas aeruginosa A9843
Method: as §1, §2
Pseudomonas aeruginosa A9843
as §3

[5] = Antibiotic blood levels in mice following intramuscular administration (paper disc-agar diffusion, Escherichia coli NIHJ as assay organism); type: in vivo; conditions: mouse, im, I.M., 20 mg./kg.; for half-life: read-out: Blood level, Half-life; for Cmax: read-out: Blood level, Peak Concentration
Method: Antibiotic blood levels were determined in mice following intramuscular administration of the test compounds at 20 mg./kg. The blood samples were collected from the orbital sinuses into heparinized capillary tubes at 15, 30, 60 and 120 minutes after administration. The antibiotic concentration was determined by the paper disc-agar diffusion method using Escherichia coli NIHJ as the assay organism.

Solubility in water = type: physicochemical; conditions: lyophilized product, read-out: dissolved readily in water to give a solution
Method: This unfortunate characteristic renders them unsuitable for use by intravenous administration. Acceptable solubility for such use is at least 125 mgm./ml. so that 250 mgm. can be administered in 2 ml. of sterile solution. Suspensions cannot, of course, be administered intravenously. […] The latter would make possible a dosage of 500 mgm. in a 2 ml. vial.
To a mixture of nicotinic acid (492 mg., 4 m.moles) and NaHCO3 (336 mg., 4 m.moles) in 2 ml. of water were added sodium 7-[D-α-(4-hydroxy-1,5-naphthyridine-3-carboxamido)-α-phenylacetamido]cephalosporanate^(3), (600 mg., 1 m.mole) and KSCN (2.4 g., 25 m.moles) and the mixture was allowed to stand overnight at 50°-52° C. The reaction mixture was placed on the top of an HP-20 column (.phi. 10 mm., 90 ml.). The column was developed with 1 L each of water, 30% aqueous MeOH and 50% aqueous MeOH. The eluate was collected in 20-ml. fractions, monitoring with tlc (silica-gel plate, CH3 CN:H2 O=4:1, detected with I2). The desired product was found in the fractions eluted with 30% aqueous MeOH, which were combined and concentrated under reduced pressure. The concentrates showing a neutral pH were lyophilized to give 105 mg. (16%) of BB-S606, which dissolved readily in water to give a 25% (w/v) solution. It started to melt around 280° C. with gradual decomposition.

Escherichia coli Juhl = experiment: In vivo efficacy, experimental infection in mice, intramuscular treatment, Escherichia coli Juhl; parameters: species or system Escherichia coli (infected mice); conditions: im, 120 h, I.M., 100×LD50 challenge i.p., 5 days, read-out: PD50 Escherichia coli Juhl
Method: as §1, §2, §3

SMILES	In vitro relative activity, primary evaluation Gp (6) (S. aureus) [%]	In vitro relative activity, primary evaluation Gn-I (13) [1] [%]	In vitro relative activity, primary evaluation Gn-II (6) [2] [%]	In vitro relative activity, primary evaluation Ps (6) (Ps. aeruginosa) [%]	In vitro relative activity, secondary, Pseudomonas aeruginosa (61-64) (Pseudomonas aeruginosa) [%]	ED50 [3] [mg/kg]	ED50 [4] [mg/kg]	half-life [5] [min]	Cmax [5] [ng/mL]	solubility (Solubility in water) [mg/mL]	ED50 (Escherichia coli Juhl) [mg/kg]
O=C([O-])C1=C(C[n+]2cccc(C(=O)O)c2)CSC2C(NC(=O)[C@H](NC(=O)c3cnc4cccnc4c3O)c3ccccc3)C(=O)N12 (stereo partly drawn) [BB-S606, 7-[D-α-(4-Hydroxy-1,5-naphthyridine-3-carboxamido)-α-phenyl-acetamido]-3-(3-carboxypyridinium)methyl-3-cephem-4-carboxylate]	45	16	11	656	624	4.2	25	55	11000	250 (≈ 390 mM)	–
NC(=O)c1cc[n+](CC2=C(C(=O)[O-])N3C(=O)C(NC(=O)[C@H](NC(=O)c4cnc5cccnc5c4O)c4ccc(O)cc4)C3SC2)cc1C(=O)O (stereo partly drawn) [BB-S592, 7-[D-α-(4-Hydroxy-1,5-naphthyridine-3-carboxamido)-α-(4-hydroxyphenyl)acetamido]-3-(4-carbamoyl-3-carboxypyridinium)methyl-3-cephem-4-carboxylate]	56	121	11	594	695	4.6	38	55	12000	–	6.25
O=C(O)C=Cc1ccc[n+](CC2=C(C(=O)[O-])N3C(=O)C(NC(=O)[C@H](NC(=O)c4cnc5cccnc5c4O)c4ccc(O)c(Cl)c4)C3SC2)c1 (stereo partly drawn) [BB-S602, 7-[D-α-(4-Hydroxy-1,5-naphthyridine-3-carboxamido)-α-(3-chloro-4-hydroxyphenyl)acetamido]-3-(3-carboxyvinylpyridinium)-methyl-3-cephem-4-carboxylate]	58	94	63	2080	1530	0.8	8.4	60	8000	–	1.4
O=C([O-])C1=C(C[n+]2ccc(CCS(=O)(=O)O)cc2)CSC2C(NC(=O)[C@H](NC(=O)c3cnc4cccnc4c3O)c3ccc(O)cc3)C(=O)N12 (stereo partly drawn) [BB-S588, 7-[D-α-(4-Hydroxy-1,5-naphthyridine-3-carboxamido)-α-(4-hydroxyphenyl)acetamido]-3-(4-sulfoethylpyridinium)methyl-3-cephem-4-carboxylate]	45	350	45	1767	2030	5	6.8	59	4400	–	1.56
O=C([O-])C1=C(C[n+]2cccc(C(=O)O)c2)CSC2C(NC(=O)[C@H](NC(=O)c3cnc4cccnc4c3O)c3ccc(O)cc3)C(=O)N12 (stereo partly shown) [BB-S579]	28	230	22	2880	2780	2	6.4	75	12000	–	1.8
O=C(O)Cc1ccc[n+](CC2=C(C(=O)[O-])N3C(=O)C(NC(=O)[C@H](NC(=O)c4cnc5cccnc5c4O)c4ccc(O)c(Cl)c4)C3SC2)c1 (stereo partly drawn) [BB-S604, 7-[D-α-(4-Hydroxy-1,5-naphthyridine-3-carboxamido)-α-(3-chloro-4-hydroxyphenyl)acetamido]-3-(3-carboxymethylpyridinium)-methyl-3-cephem-4-carboxylate]	50	94	45	1450	2030	2.5	6.2	56	10500	–	2.4
O=C([O-])C1=C(C[n+]2cccc(C(=O)O)c2)CSC2C(NC(=O)[C@H](NC(=O)c3cnc4cccnc4c3O)c3ccc(O)c(Cl)c3)C(=O)N12 (stereo partly drawn) [BB-S600, 7-[D-α-(4-Hydroxy-1,5-naphthyridine-3-carboxamido)-α-(3-chloro-4-hydroxyphenyl)acetamido]-3-(3-carboxypyridinium)-methyl-3-cephem-4-carboxylate]	70	107	30	2340	2500	2	6.2	70	6200	–	2.2

— US4198504A, “[3-(Pyridinium)-7-(naphthyiridinyl carbonylamino)acetamido]cephalosporanic acid derivatives” (Bristol-Myers Company, priority 1978, dated 1980)
